Structures are written as SMILES. Like-named read-outs stand apart in the source and are kept apart here. Marks after values point to notes of the source that are not given here.

Data set [1] can be described thus: Clinical observations with vidofludimus: blood uric acid, urine RBC, hematuria. It is filed as in vivo, human. How it is done:
A novel class of compounds with an inhibitory effect on DHODH, in particular human DHODH, was found and described in EP 2 093 214 A1. Vidofludimus (CAS 717824-30-1) is the free acid of a compound according to formula (I) and is tested in clinical trials in human subjects. […] Higher dose means e.g. doses higher than […] once daily application of vidofludimus in humans. However, doses of compounds of formula (I), e.g. higher than 200 μmol once daily application, sometimes lead to undesirable side effects such as an increased risk of increased red blood cell count (RBC) in the urine (hematuria).
At high vidofludimus doses (i.e. ≥70 mg/day or single doses of ≥210 mg) a decrease in blood uric acid levels and an increase in urine red blood cell count were observed, in very rare cases, presenting as symptomatic hematuria during the first 7 days of treatment. Laboratory findings were consistent with post-renal events and de novo precipitates in the urinary tract.
A side effect that may also be termed adverse effect is a harmful and undesired effect resulting from medication during its use in the prevention and/or treatment of a patient with the inventive compound (I).

A short description of data set [2]: Clinical study comparing treatment with and without pre-treatment phase: uric acid excreted in urine. It is filed as in vivo, human. As to conditions: for Change in Median uric acid excreted in urine: Day 0 (first day of 50 mg dose), n 8. An excerpt: A double-blind clinical study, Placebo controlled, Ascending Dose has been conducted. This study has been reported (Study Number P1-IMU-838-MAD).
Uric acid excretion in urine could be however modified with a pre-treatment period.

The nature of data set [3]: Phase I MAD trial (P1-IMU-838-MAD): uric acid in 24 h urine, 14 days once daily without predosing. It counts as in vivo, human. How it is done: Each group consists of 16 patients with 12 individuals receiving active drug IMU-838 (either 30 or 40 mg per day) and 4 patients receiving placebo.
In a randomized, placebo controlled double blind clinical Phase I MAD trial (Immunic study number P1-IMU-838-MAD), IMU-838 was applied to healthy volunteers for 14 days in order to test the effects of IMU-838 on safety and biomarkers for repeated once daily doses over 14 days. In the first part of this study, 12 individuals were treated with 30 mg of IMU-838, 12 individuals were treated with 40 mg of IMU-838 and 8 individuals received placebo (4 individuals in each group). For all 32 individuals, urate levels in the urine was quantified in three periods of 24 hour urine collection. The first collection was at pre-dose (day 0). The second urine collection started four hours after intake of the first dose (day 1, 4 hours to 28 hours). The third collection of urine was performed on the last day of the 14 day treatment cycle (day 14, 4 hours to 28 hours). The amounts of uric acid at those timepoints is depicted in FIG. 2a.

The nature of data set [4]: Three week phase I trial with dose-in phase (25 mg then 50 mg): urate in 24 h urine. It is filed as in vivo, human. The settings on record: all 20 subjects incl. placebo. The procedure:
8 individuals were treated with 25 mg for 7 days, followed by 14 day treatment with a dose of 50 mg once daily. Another 8 volunteers were treated with placebo (dose 1=0 mg) for 7 days followed by treatment of 50 mg IMU-838. 4 volunteers received placebo for the whole time.
Based on the observations on a) dose dependent effect of IMU-838 on urate levels in the urine and formation of small crystals (example 1) and b) the time course and dose dependence of urate level changes in single volunteers (example 2) a new therapeutic treatment scheme was invented. In this example a treatment scheme was applied to a three week clinical phase I trial consisting of two different doses “dose 1” of 25 mg daily dose and “dose 2” of 50 mg daily dose. 8 subjects received a lower dose 1 for 7 days followed by the higher (double) dose 2 for further 14 days, whereas another 8 subjects received placebo for 7 days then followed by treatment with the 50 mg high dose (dose 2). 4 subjects received placebo during the foll three week period. During this study urine was collected at four different timepoints (pre-dose, day 1, day 7, day 14) and analyzed for urate/uric acid levels.

A short description of data set [5]: Phase I SAD study: RBC in urine / hematuria. It is filed as in vivo, human. The procedure: (§1) During the IMU-838 (vidofludimus-calcium) phase I SAD study (Immunic study number P1-IMU-838-SAD), urine was collected from all volunteers and tested with respect to the amount of clinical relevant anions, including urate and oxalate. In addition, formation of anion crystals in the urine was measured. In this study, IMU-838 was tested as a single dose applied to male healthy volunteers. Five different dose regimens were tested which covered four different doses of IMU-838: 10 mg, 20 mg, 30 mg and 40 mg of IMU-838 in fastened patients, which means no food intake 10 hours prior to the treatment and two hours after dose application. In addition, one dose group received 10 mg of IMU-838 in fed state which means that the 10 mg dose was applied after a high-fat breakfast. Each group consisted of six healthy volunteers, except for the 40 mg dose group with only five volunteers.
Treatment of humans with IMU-838 leads to dose dependent increase of urate excretion through the urine and thus to formation of urate (micro)crystals.

Data set [6] can be described thus: Phase I SAD study (P1-IMU-838-SAD): plasma concentration after single dose. As to conditions: human, oral, read-out: maximum plasma concentrations (cmax). It is filed as in vivo.
Data set [7] can be described thus: Phase I SAD study: uric acid in 24 h collected urine. The settings on record: for Uric acid, Pre dose (−24 h to 0): 24 h urine; for Increase of mean uric acid levels: post dose vs pre dose. It counts as in vivo, human. How it is done: as §1
The pre-dose value was derived from urine collected 24 hours before application of IMU-838 tablets. The post dose value was obtained by collecting 24 hours urine starting 4 hours after intake of IMU-838.

Where [8] appears, read: high doses, ≥70 mg/day or single doses of ≥210 mg.

On to `COc1cccc(-c2ccc(NC(=O)C3=C(C(=O)O)CCC3)c(F)c2)c1` [vidofludimus], for which, in data set [1] (daily doses of 35 mg), the symptomatic hematuria entry is “no cases of symptomatic hematuria”. In data set [1] (setting [8]), the “blood uric acid levels” value was “decrease” and the “urine red blood cell count” value is “increase”.

In the case of `COc1cccc(-c2ccc(NC(=O)C3=C(C(=O)O)CCC3)c(F)c2)c1` [IMU-838], the “urinary excretion of uric acid after treatment initiation” value in data set [2] (P1-IMU-838-MAD dose groups) is “increased in all but the 30 mg group”. Besides, the figures for the “Change in Median uric acid excreted in urine” value in data set [2] (Placebo pre-treatment then 50 mg) and in data set [2] (Pre-dosing 25 mg for 6 days then 50 mg) were 86.5 mg/24 h and 49.5 mg/24 h, respectively. Besides, in data set [3] (30 mg and 40 mg groups, after the full 14 days treatment), the “increase of uric acid compared with pre-treatment” value was “around 30%”. In addition, the “amount of uric acid in 24 hour urine” value in data set [3] (30 mg group, pre-dose (day 0) baseline) was found to be 605.9 mg; in data set [3] (30 mg once daily, day 14), 686.2 mg; in data set [3] (40 mg group, pre-dose (day 0) baseline) it was 541.4 mg; in data set [3] (40 mg once daily, day 14), 699.3 mg; in data set [3] (40 mg once daily, first day (4-28 hours after intake)), 620.3 mg. For the same compound, the “increase of uric acid in urine” value in data set [3] (30 mg once daily, after 14 days vs pre-dose) is reported as 29%; in data set [3] (40 mg once daily, first day (4-28 hours) vs pre-dose), 15.2%. In data set [3] (30 mg once daily, day 1 (4 to 28 hours)), the “increase of uric acid in urine at day one” value was “no increase”. The “mean 24 hours urinary urate level” value in data set [4] (after 1 day of treatment (4-28 hours)) amounted to 789.5 mg; in data set [4] (after three weeks (day 21)), 815.9 mg; in data set [4] (first day of dose 2 50 mg (day 7 of the full trial)), 789.7 mg; in data set [4] (pre-dose baseline) it was 684.1 mg. The “mean increase in 24 hours urinary urate levels” value in data set [4] (after 1 day of treatment (4-28 hours), dose 1 25 mg) stood at 15%. In data set [4] (day 21 vs first day of dose 2), the “overall increase of mean urinary urate level” value is 4%. Moreover, in data set [5] (doses up to 40 mg of IMU-838), the “dose limiting side effects like hematuria” value is on record as “no dose limiting side effects like hematuria occurred”. Also, the “RBC (red blood cell count) in urine” value in data set [5] (single doses 10 to 40 mg) is given as “not leading to increase of RBC”. For the same compound, the Cmax turned out to be 1580 ng/mL in data set [6] (single dose 10 mg IMU-838, fasted male healthy volunteers) and 7860 ng/mL in data set [6] (male, single dose 40 mg IMU-838, fasted). The “Uric acid, Pre dose (−24 h to 0)” value in data set [7] (10 mg fasted group, N = 6, baseline before dosing) is 520 mg/24 h; in data set [7] (40 mg fasted group, N = 4, baseline before dosing), 489^a mg/24 h. Also, the “Uric acid, Post dose (4 to 28 h)” value in data set [7] (single dose 10 mg fasted, N = 6, 24 h urine) is 637 mg/24 h; in data set [7] (single dose 40 mg fasted, N = 5, 24 h urine), 734 mg/24 h. Further, the entries for the “Increase of mean uric acid levels” value in data set [7] (single dose 10 mg fasted) and in data set [7] (single dose 40 mg fasted) were 117 mg/24 h and 245 mg/24 h, respectively.

(Values after patent US12629347B2, “Compounds and dosage regimen for use in the prevention or treatment of chronic inflammatory and/or autoimmune diseases” (Immunic AG, priority 2017, dated 2026).)
